The source of these data is US6423547B1, “Non-covalent bioconjugates useful for diagnosis and therapy” (Mallinckrodt Inc., priority 1998, dated 2002).

Read-outs that look alike come from different tables or passages of the source.

Data set [1] in a line: Blood clearance in rats monitored by fluorescence from ear capillaries. The settings on record: rat, injected through lateral tail vein; excitation 780 nm, emission 830 nm. The procedure: A 500 μL portion of indocyanine green solution (0.8 mg/mL) was injected through the lateral tail vein of Sprague-Dawley or Fischer rats. Blood clearance of the dye bioconjugate was monitored by fluorescence signal emanating from the capillaries of the ear surface using a laser fluorescence apparatus (excitation, 780 nm; emission 830 nm).

The conditions of data set [2]: 822 nanometers, ambient temperature, aqueous solution.
Method: An aqueous solution of indocyanine green (ICG) and the carriers, inulin, poly-d,l-aspartic acid, polyguanylic acid, MBSA, and γ-cyclodextrin were prepared and the fluorescence intensity was monitored at ambient temperature at various time intervals.
The conditions of data set [3]: in vivo; cited from earlier work.
The conditions of data set [4]: cited from earlier work.
Data set [5] is described as follows: Stability of cyanine blue dye and conjugates in aqueous solution, fluorescence intensity at 670 nm. Particulars: 670 nanometers, ambient temperature. Type of data set: physicochemical.
Data set [6] is described as follows: Stability of benzothiazolim-squaraine dye and bioconjugates in aqueous solution, fluorescence intensity at 665 nm. Particulars: 665 nanometers, ambient temperature. Type of data set: physicochemical.
Data set [7] is described as follows: Stability of carboxyphloroglucinol-squaraine dye and bioconjugates in aqueous solution, fluorescence intensity at 613 nm. It counts as physicochemical. The settings on record: 613 nanometers (λex=515), ambient temperature.

As to `CC1(C)C(/C=C/C=C/C=C/C=C2/N(CCCCS(=O)(=O)O)c3ccc4ccccc4c3C2(C)C)=[N+](CCCCS(=O)(=O)O)c2ccc3ccccc3c21.[Na+].[Na+]` [indocyanine green, Indocyanine Green Dye], the “time constant (τ) for blood clearance” value in data set [1] stood at 138 s. The “Percent Decrease in Fluorescence” value in data set [2] (2 Hours) was determined as 0%; in data set [2] (4 Hours), 19%; in data set [2] (24 Hours) it was 48%. Further, the plasma half-life entry in data set [3] is recorded as “very short”. The “uptake by the liver” value in data set [3] is on record as “rapidly taken up by the liver”. Further, in data set [4], the “degradation in aqueous media” value was “undergoes degradation in aqueous media with loss of fluorescence”.

Take `O=C(O)CN1/C(=C/C=C/C=C/c2sc3ccccc3[n+]2CC(=O)O)Sc2ccccc21` [Cyanine Blue Dye/Water, Cyanine Blue Dye]: the figures for the “Percent Decrease in Fluorescence” value in data set [5] (2 Hours), in data set [5] (4 Hours) and in data set [5] (24 Hours) were 20%, 42% and 99%, respectively.

`O=C(O)CN1/C(=C/C2=C(O)C(=C/c3sc4ccccc4[n+]3CC(=O)O)/C2=O)Sc2ccccc21` [Benzothiazolim Dye/Water, Benzothiazolium Squaraine Dye]: the “Percent Decrease in Fluorescence” value in data set [6] (2 Hours) was found to be 92%; in data set [6] (4 Hours), 64%; in data set [6] (24 Hours) it was 46%.

Regarding `O=C(O)C1=C(O)/C(=C2/C(=O)C(c3c(O)cc(O)c(C(=O)O)c3O)=C2O)C(O)=CC1=O` [Carboxyphloroglucinol Squaraine Dye], the entries for the “Percent Decrease in Fluorescence” value in data set [7] (2 Hours), in data set [7] (4 Hours) and in data set [7] (24 Hours) were 13%, 13% and 50%, respectively.
